Measurements reported in ChEMBL document CHEMBL1149776, “Synthesis and biological evaluation of some thiazolyl and thiadiazolyl derivatives of 1H-pyrazole as anti-inflammatory antimicrobial agents” (Eur J Med Chem, 2008).
Converted amounts (≈) assume the structure as drawn.

Tests used:
[1] = system: Escherichia coli; experiment: Antimicrobial activity against Escherichia coli ATCC 25922; type: functional
[2] = system: Staphylococcus aureus; experiment: Antimicrobial activity against Staphylococcus aureus ATCC 19433; type: functional
[3] = species: Rattus norvegicus; experiment: Antiinflammatory activity in Sprague-Dawley rat cotton pellet-induced granuloma model; type: functional
[4] = system: Rattus norvegicus; experiment: Gastrointestinal toxicity in albino rat assessed as ulcerogenic effect at 30 umol/kg, po for 3 days; type: organism-based; settings: in vivo, 72 h
[5] = system: Candida albicans; experiment: Antimicrobial activity against Candida albicans; type: functional
[6] = system: Rattus norvegicus; experiment: Antiinflammatory activity in albino rat assessed as protection against carrageenan-induced paw edema at 10 umol/kg, sc administered 1 hr prior to carrageenan challenge relative to indomethacin; type: functional
[7] = biological target: Prostaglandin G/H synthase 1 (Homo sapiens, UniProt P23219); experiment: Inhibition of human platelet COX1
[8] = system: Mus musculus; experiment: Toxicity in mouse upto 40 mg/kg, po assessed as mortality after 24 hrs; type: organism-based; design: dose 40 mg/kg, route oral; settings: in vivo
[9] = system: Mus musculus; experiment: Toxicity in parenterally dosed mouse upto 65 mg/kg assessed as mortality upto 7 days; type: organism-based; design: dose 65 mg/kg; settings: in vivo, 168 h

Chain of Prostaglandin G/H synthase 1 (P23219 whole entry): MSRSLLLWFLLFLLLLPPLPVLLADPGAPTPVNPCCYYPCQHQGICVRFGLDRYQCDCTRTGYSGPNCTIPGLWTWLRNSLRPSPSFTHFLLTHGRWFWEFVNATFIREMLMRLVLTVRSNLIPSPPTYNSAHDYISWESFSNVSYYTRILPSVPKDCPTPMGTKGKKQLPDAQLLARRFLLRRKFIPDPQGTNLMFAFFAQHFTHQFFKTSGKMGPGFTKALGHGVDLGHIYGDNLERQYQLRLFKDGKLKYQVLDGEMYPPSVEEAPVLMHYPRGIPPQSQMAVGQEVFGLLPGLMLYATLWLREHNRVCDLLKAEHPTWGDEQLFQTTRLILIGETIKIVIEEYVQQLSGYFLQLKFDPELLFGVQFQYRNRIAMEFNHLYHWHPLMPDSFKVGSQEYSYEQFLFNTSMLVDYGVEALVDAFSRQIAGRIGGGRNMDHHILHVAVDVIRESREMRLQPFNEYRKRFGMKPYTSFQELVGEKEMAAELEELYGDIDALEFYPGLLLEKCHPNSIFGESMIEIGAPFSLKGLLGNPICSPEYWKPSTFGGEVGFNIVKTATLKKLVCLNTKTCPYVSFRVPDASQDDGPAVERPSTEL

SMILES | MIC [1] [µg/mL] | MIC [2] [µg/mL] | MIC [5] [µg/mL] | ED50 [3] [µmol] | Activity [4] [%] | Activity [6] [%] | IC50 [7] [µmol] | Activity [8] | Activity [9]
CC1(C)S[C@@H]2[C@H](NC(=O)[C@H](N)c3ccccc3)C(=O)N2[C@H]1C(=O)O [AMPICILLIN] | 25 (≈ 71.5 µM) | 12.5 (≈ 35.8 µM) |  |  |  |  |  |  | 
COc1ccc2c(c1)c(CC(=O)O)c(C)n2C(=O)c1ccc(Cl)cc1 [INDOMETHACIN] |  |  |  | 9.58 | 100 |  |  |  | 
CC(=O)N(C1=NN(C(C)=O)C(c2cn(-c3ccc(S(=O)(=O)/N=C/N(C)C)cc3)nc2-c2ccccc2)S1)c1ccc(Cl)cc1 (stereo unspecified) | 50 (≈ 76.9 µM) | > 200 | 25 (≈ 38.5 µM) | 13.96 | 10 |  |  |  | 
CN(C)/C=N/S(=O)(=O)c1ccc(-n2cc(/C=N\N=C3/SCC(=O)N3c3ccc(Cl)cc3)c(-c3ccccc3)n2)cc1 | 100 (≈ 165 µM) | 25 (≈ 41.2 µM) | > 200 | 9.12 | 10 | 104.16 | > 100 | Non-toxic | Non-toxic
Cc1ccc(N2C(=O)CS/C2=N\N=C/c2cn(-c3ccc(S(=O)(=O)/N=C/N(C)C)cc3)nc2-c2ccccc2)cc1 | 25 (≈ 42.7 µM) | 100 (≈ 171 µM) | 100 (≈ 171 µM) | 9.34 | 20 | 98.65 | 87.12 | Non-toxic | Non-toxic
CN(C)/C=N/S(=O)(=O)c1ccc(-n2cc(/C=N\N=c3/scc(-c4ccc(Br)cc4)n3-c3ccc(Cl)cc3)c(-c3ccccc3)n2)cc1 | 100 (≈ 134 µM) | 100 (≈ 134 µM) | 50 (≈ 67.1 µM) | 9.56 | 0 |  |  | Non-toxic | Non-toxic

Continued, in another order:

MIC [1] [µg/mL] | MIC [2] [µg/mL] | MIC [5] [µg/mL] | SMILES | ED50 [3] [µmol] | Activity [4] [%] | Activity [6] [%] | IC50 [7] [µmol] | Activity [8] | Activity [9]
50 (≈ 87.5 µM) | 25 (≈ 43.7 µM) | 100 (≈ 175 µM) | CN(C)/C=N/S(=O)(=O)c1ccc(-n2cc(/C=N\N=C3/SCC(=O)N3c3ccccc3)c(-c3ccccc3)n2)cc1 | 13.36 | 10 |  |  |  | 
100 (≈ 189 µM) | > 200 | 100 (≈ 189 µM) | CN(C)/C=N/S(=O)(=O)c1ccc(-n2cc(-c3nnc(Nc4ccccc4)s3)c(-c3ccccc3)n2)cc1 | 11.38 | 0 |  |  |  | 
50 (≈ 81.2 µM) | > 200 | 50 (≈ 81.2 µM) | CC(=O)N(C1=NN(C(C)=O)C(c2cn(-c3ccc(S(=O)(=O)/N=C/N(C)C)cc3)nc2-c2ccccc2)S1)c1ccccc1 (stereo unspecified) | 12.54 | 20 |  |  |  | 
50 (≈ 79.4 µM) | 100 (≈ 159 µM) | 25 (≈ 39.7 µM) | CC(=O)N(C1=NN(C(C)=O)C(c2cn(-c3ccc(S(=O)(=O)/N=C/N(C)C)cc3)nc2-c2ccccc2)S1)c1ccc(C)cc1 (stereo unspecified) | 14.86 | 10 |  |  |  | 
100 (≈ 177 µM) | 100 (≈ 177 µM) | > 200 | CN(C)/C=N/S(=O)(=O)c1ccc(-n2cc(-c3nnc(Nc4ccc(Cl)cc4)s3)c(-c3ccccc3)n2)cc1 | 11.88 | 10 |  |  |  | 
25 (≈ 35.2 µM) | 25 (≈ 35.2 µM) | > 200 | CN(C)/C=N/S(=O)(=O)c1ccc(-n2cc(/C=N\N=c3/scc(-c4ccc(Br)cc4)n3-c3ccccc3)c(-c3ccccc3)n2)cc1 | 12.96 | 0 |  |  |  | 
50 (≈ 69 µM) | 50 (≈ 69 µM) | 100 (≈ 138 µM) | Cc1ccc(-n2c(-c3ccc(Br)cc3)cs/c2=N\N=C/c2cn(-c3ccc(S(=O)(=O)/N=C/N(C)C)cc3)nc2-c2ccccc2)cc1 | 11.06 | 0 | 94.46 | 96.25 |  | 
100 (≈ 184 µM) | 25 (≈ 46 µM) | > 200 | Cc1ccc(Nc2nnc(-c3cn(-c4ccc(S(=O)(=O)/N=C/N(C)C)cc4)nc3-c3ccccc3)s2)cc1 | 12.46 | 10 |  |  |  | 
